The supplement of paper PMC5579334
± gives the standard deviation of the averaged measurements.

Experiments:
STS26T [1] = assay: drug sensitivity score (DSS, CellTiter-Glo viability, 72 h) (DSS (dimensionless)); higher = more sensitive; extreme values may be limits of the assay
Summary of the method: (§1)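 Viability was scored by CellTiter-Glo ATP luminescence, scaled from vehicle to positive-control wells, with duplicates averaged where present. The cells, MPNST lines and primary human Schwann cells at 750–1000 per well, sat 72 h at 37 °C, 5% CO2, in 384-well plates preprinted with each compound at five concentrations in 10-fold steps. Four-parameter logistic fits were run on the data. These fits give drug sensitivity score and relative IC50 censored at the top concentration, and percent inhibition is reported at the top concentration.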

HS-PSS [2] = assay: as above
Summary of the method: as §1

YST-1 [3] = assay: as above
Summary of the method: as §1

[4] = system: HSC2 (primary human Schwann cells); assay: as above
Summary of the method: as §1

S462 [5] = assay: as above
Summary of the method: as §1

ST8814 [6] = assay: as above
Summary of the method: as §1

HS-Sch-2 [7] = assay: as above
Summary of the method: as §1

[8] = system: HSC1 (primary human Schwann cells); assay: as above
Summary of the method: as §1

S1507-2 [9] = assay: as above
Summary of the method: as §1

STS26T [10] = assay: % inhibition of CellTiter-Glo viability at highest tested concentration (72 h), relative to DMSO and benzethonium chloride controls; higher = more inhibition
Summary of the method: as §1

HS-PSS [11] = assay: as above
Summary of the method: as §1

YST-1 [12] = assay: as above
Summary of the method: as §1

[13] = system: HSC2 (primary human Schwann cells); assay: as above
Summary of the method: as §1

S462 [14] = assay: as above
Summary of the method: as §1

ST8814 [15] = assay: as above
Summary of the method: as §1

HS-Sch-2 [16] = assay: as above
Summary of the method: as §1

[17] = system: HSC1 (primary human Schwann cells); assay: as above
Summary of the method: as §1

S1507-2 [18] = assay: as above
Summary of the method: as §1

STS26T [19] = assay: drug sensitivity score (DSS, CellTox-Green cytotoxicity, 72 h) (DSS (dimensionless)); higher = more cytotoxic; extreme values may be limits of the assay
Summary of the method: (§2)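 MPNST cell lines and primary human Schwann cells were incubated 72 h at 37 °C in 384-well plates holding five 10-fold compound dilutions. CellTox-Green was added before seeding at a final 1:1000 dilution and reported fluorescence from DNA released by disrupted cells. Signals were scaled to vehicle and positive-control wells, and cultures failing plate quality control were dropped. Drug sensitivity score and relative IC50 come from four-parameter logistic fits, with IC50 censored at the top concentration.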

HS-PSS [20] = assay: as above
Summary of the method: as §2

[21] = system: HSC2 (primary human Schwann cells); assay: as above
Summary of the method: as §2

ST8814 [22] = assay: as above
Summary of the method: as §2

[23] = system: HSC1 (primary human Schwann cells); assay: as above
Summary of the method: as §2

S1507-2 [24] = assay: as above
Summary of the method: as §2

Compound	drug sensitivity score (STS26T [1])	drug sensitivity score (HS-PSS [2])	drug sensitivity score (YST-1 [3])	drug sensitivity score [4]	drug sensitivity score (S462 [5])	drug sensitivity score (ST8814 [6])	drug sensitivity score (HS-Sch-2 [7])	drug sensitivity score [8]	drug sensitivity score (S1507-2 [9])	% inhibition (STS26T [10]) [%]	% inhibition (HS-PSS [11]) [%]	% inhibition (YST-1 [12]) [%]	% inhibition [13] [%]	% inhibition (S462 [14]) [%]	% inhibition (ST8814 [15]) [%]	% inhibition (HS-Sch-2 [16]) [%]	% inhibition [17] [%]	% inhibition (S1507-2 [18]) [%]	drug sensitivity score (STS26T [19])	drug sensitivity score (HS-PSS [20])	drug sensitivity score [21]	drug sensitivity score (ST8814 [22])	drug sensitivity score [23]	drug sensitivity score (S1507-2 [24])
O=P1(N(CCCl)CCCl)NCCCO1 (stereo not drawn) [Cyclophosphamide] (max concentration tested 40000 nM)	0	0	0	0	0	0	0	0	0	-1.7	-15	3.85	-1.29	-8.093 ± 0.056	-3.77	-7.77	8.38	-7.33 ± 17	0	0	0	0	0	2.5 ± 3.5
Nc1ccn([C@@H]2O[C@H](CO)[C@@H](O)[C@@H]2O)c(=O)n1 [Cytarabine] (max concentration tested 10000 nM)	13.8	10.2	13.2	14	20 ± 0.39	12.1	9.14	10.8	6.29 ± 0.62	74.7	65.1	69.2	80.3	96.4 ± 1.9	90.2	69.3	65.1	66.4 ± 5.8	5.45	5.69	4.6	7.9	5.58	0.68 ± 0.19
CC(C)(C)c1nc(-c2cccc(NS(=O)(=O)c3c(F)cccc3F)c2F)c(-c2ccnc(N)n2)s1 [Dabrafenib] (max concentration tested 2500 nM)	3.99	0.78	0.2	5.89	1.99 ± 0.58	1.19	0.66	4.42	0.291 ± 0.41	31.1	26.6	17.6	31.7	35.5 ± 1.5	33	24.5	39.9	17.6 ± 9.1	0	0.89	0.888	0	0.888	0
CN(C)/N=N/c1[nH]cnc1C(N)=O [Dacarbazine] (max concentration tested 10000 nM)	1.17	0	0	0	0.065 ± 0.092	0	0	0	0	23.5	7.14	-4.08	-1.82	8.66 ± 8.8	3.31	7.05	9.74	-5.83 ± 6.6	0	0	0	0	0	0.828 ± 1.2
COc1cc2ncnc(Nc3ccc(F)c(Cl)c3)c2cc1NC(=O)/C=C/CN1CCCCC1 [Dacomitinib] (max concentration tested 1000 nM)	0.0007	3	0	0.456	0.0398 ± 0.056	0.993	2.81	0.027	1.41 ± 1.5	13.6	35.4	9.37	19.3	7.49 ± 5.3	16.4	32.6	12.1	24.7 ± 9.1	0	1.85	0	0	0	1.18 ± 1.6
Cc1c2oc3c(C)ccc(C(=O)N[C@@H]4C(=O)N[C@H](C(C)C)C(=O)N5CCC[C@H]5C(=O)N(C)CC(=O)N(C)[C@@H](C(C)C)C(=O)O[C@@H]4C)c3nc-2c(C(=O)N[C@@H]2C(=O)N[C@H](C(C)C)C(=O)N3CCC[C@H]3C(=O)N(C)CC(=O)N(C)[C@@H](C(C)C)C(=O)O[C@@H]2C)c(N)c1=O [Dactinomycin] (max concentration tested 1000 nM)	31.9	25.1	37.4	33.5	32.3 ± 1.7	25.3	32.5	30.8	23.4 ± 0.57	99	86.7	101	89.2	99.1 ± 1.6	85.6	102	83	87 ± 3.5	25.8	6.19	14.7	5.68	12.7	5.68 ± 3.9
Cn1c(=O)n(-c2ccc(C(C)(C)C#N)cc2)c2c3cc(-c4cnc5ccccc5c4)ccc3ncc21 [Dactolisib] (max concentration tested 1000 nM)	17.2	14.4	14.7	19.4	13.2 ± 0.72	14.3	13.9	19.4	15.8 ± 2.9	67.7	69.8	63.8	78.3	61 ± 0.72	64	61.8	75	66 ± 2.8	0	0.12	0	0	0	0
